Patent US9945845B2, “Methods of screening using amphibians” (priority 2009, dated 2018)
Like-named read-outs stand apart in the source and are kept apart here.

Test system: Xenopus embryos
Details: for Type of edema Periocular: * = causing bulging eyes, # = bilateral, causing narrow-set eyes; for Type of edema Ventral: ‡ = edemas also detected in the gut
Experimental: 10-μl aliquots of the chemicals were transferred from the mother plates with a liquid handling robot (Aquarius, Tecan) into 96-well tissue culture plates to generate diluted stock plates (2 mM in DMSO; 50 μl final volume). […] Once embryos reached stage 31 (37 hpf), 10-μl aliquots of the diluted chemicals were added to the wells. […] Negative control wells contained embryos in screening medium and 0.1×MMR only. Embryos were treated with the chemicals in a humidified incubator at 23° C. over a timeframe of 4 days. Embryos were manually scored for the presence of edema or other morphological phenotypes using a teaching dissecting microscope (SV6; Carl Zeiss). Two investigators performed separately the scoring daily at stages 39 (56 hpf), 41 (76 hpf), 45 (98 hpf), and 47 (120 hpf). Dead embryos were removed and 100 μl of water was added daily to each well to compensate for fluid evaporation. […] For imaging at the end of the experiments. Xenopus tadpoles were anesthetized with 0.05% tricaine (Sigma #A5040) in 0.1×MMR. Images were captured using a stereomicroscope (SteREO Lumar V12; Carl Zeiss) equipped with a digital camera (AxioCam Color; Carl Zeiss).
Xenopus late tailbud embryos at stage 31 (37 hpf) were selected for compound treatment. […] Embryos were arrayed into 48-well dishes (five per well) and treated with test compounds at a concentration of 20 μM in the presence of 1% DMSO. […] All 48-well dishes also contained replicates of negative controls (1% DMSO). Embryos were monitored daily over a period of four days for edema formation. In addition, drug-induced lethality and other externally visible phenotypes were scored. On average, 320 compounds were screened per week.

[1] = onset of edema, 20 μM, 1% DMSO, treatment from stage 31, Nieuwkoop & Faber stage
[2] = compounds causing lethality, 20 μM, 1% DMSO, treatment from stage 31, Nieuwkoop & Faber stage
[3] = compounds causing cytotoxicity, 20 μM, 1% DMSO, treatment from stage 31, Nieuwkoop & Faber stage

## Cl.O=C(CCCN1CCC2(CC1)C(=O)N(CCc1ccc(N=C=S)cc1)CN2c1ccccc1)c1ccc(F)cc1 [N-(p-Isothiocyanatophenethyl)spiperone hydrochloride]
Embryonic stage
  Type of edema Periocular: 45 embryonic stages according to Nieuwkoop and Faber (NF)
  Type of edema Ventral: 45 embryonic stages according to Nieuwkoop and Faber (NF)
[1]
  Onset (NF): 45 NF

## CCCCCCCC/C=C\CCCCCCCC(=O)NCCc1ccc(O)c(O)c1 [N-Oleoyldopamine]
[2]
  Lethality (NF): 41 NF

## COC(=O)C1=C(C)NC(C)=C(C(=O)OC)C1c1ccccc1[N+](=O)[O-] [Nifedipine]
Embryonic stage
  Type of edema Pericordial: 41/42
  Type of edema Periocular: 41/42
  Type of edema Ventral: 45 embryonic stages according to Nieuwkoop and Faber (NF)
[1]
  Onset (NF): 41/42

## COCCOC(=O)C1=C(C)NC(C)=C(C(=O)OC(C)C)C1c1cccc([N+](=O)[O-])c1 (centres unmarked) [Nimodipine, 1,4-Dihydro-2,6-dimethyl-4-(3-nitrophenyl)-3,5-pyridinecarboxylic acid 2-methoxyethyl 1-methylethyl ester]
Xenopus laevis, in vivo
  Lethality: 41/42
  Lethality (NF): 41/42
Embryonic stage
  Type of edema Pericordial: 41/42
[1]
  Onset (NF): 41/42

## CCOC(=O)C1=C(C)NC(C)=C(C(=O)OC)C1c1cccc([N+](=O)[O-])c1 (centres unmarked) [Nitrendipine, 1,4-Dihydro-2,6-dimethyl-4-(3-nitrophenyl)-3,5-pyridinecarboxylic acid ethyl methyl ester]
[2]
  Lethality (NF): 45 NF

## CCCCCCCCCCCCCC(=O)O[C@@H]1[C@@H](C)[C@@]2(O)[C@@H](C=C(CO)C[C@]3(O)C(=O)C(C)=C[C@@H]23)[C@@H]2C(C)(C)[C@]12OC(C)=O [Phorbol 12-myristate 13-acetate]
[3]
  Lethality (NF): 32 NF

## O=c1[nH]c2ccccc2n1C1CCN(CCCC(c2ccc(F)cc2)c2ccc(F)cc2)CC1 [Pimozide]
Compounds causing edema, 20 μM, 1% DMSO, treatment from stage 31, scored to stage 47
  Lethality (NF): 45 NF
Embryonic stage
  Type of edema Pericordial: 41/42
  Type of edema Pronephric: 41/42
  Type of edema Ventral: 41/42
Embryonic stage, — = no stage of lethality given
  Lethality: 45 embryonic stages according to Nieuwkoop and Faber (NF)
[1]
  Onset (NF): 41/42

## Br.C=CCN1CCc2cccc3c2[C@H]1Cc1ccc(O)c(O)c1-3 [R(-)-N-Allylnorapomorphine hydrobromide]
Compounds causing pigmentation defects, 20 μM, scored to stage 47
  Lethality (NF): 40 NF
Onset of pigmentation defects, 20 μM, 1% DMSO
  Onset (NF): 33/34

## Nc1nc2ccc(OC(F)(F)F)cc2s1 [Riluzole, 2-Amino-6-(trifluoromethoxy)-benzothiazole]
Embryonic stage
  Type of edema Pronephric: 45 embryonic stages according to Nieuwkoop and Faber (NF)
  Type of edema Periocular: 45 embryonic stages according to Nieuwkoop and Faber (NF)
  Type of edema Ventral: 45 embryonic stages according to Nieuwkoop and Faber (NF)

## Cc1nc2sccn2c(=O)c1CCN1CCC(=C(c2ccc(F)cc2)c2ccc(F)cc2)CC1 [Ritanserin]
Embryonic stage
  Type of edema Pronephric: 45 embryonic stages according to Nieuwkoop and Faber (NF)
  Type of edema Periocular: 41/42
  Type of edema Ventral: 41/42
[1]
  Onset (NF): 41/42

## O=C(c1cc(O)c(O)c([N+](=O)[O-])c1)c1ccccc1F [Ro 41-0960, 2′-Fluoro-3,4-dihydroxy-5-nitrobenzophenone]
[3]
  Lethality (NF): 33/34

## C=C(C)[C@H]1Cc2c(ccc3c2O[C@@H]2COc4cc(OC)c(OC)cc4[C@@H]2C3=O)O1 [Rotenone]
[3]
  Lethality (NF): 32 NF

## CC(=O)c1c(O)c(C)c(O)c(Cc2c(O)c3c(c(C(=O)/C=C/c4ccccc4)c2O)OC(C)(C)C=C3)c1O [Rottlerin]
[3]
  Lethality (NF): 32 NF
